Experiments:
E. coli = assay: Minimum Bactericidal Concentration (MBC) assay (CAMHB); type: cell-based, Escherichia coli; conditions: Table 4, all ΔΔ- enantiomers
Protocol: (§1) Further MIC assays and Minimum Bactericidal Concentration (MBC) assays were conducted against Gram-positive and Gram-negative bacterial strains using symmetric and non-symmetric, inert and labile complexes.

S. aureus = assay: as above; type: cell-based, Staphylococcus aureus; conditions: Table 4, all ΔΔ- enantiomers
Protocol: as §1

S. aureus ATCC 25923 = assay: MIC determination, broth micro-dilution (CAMHB); type: cell-based, Staphylococcus aureus
Protocol: (§2) Four strains of bacteria were chosen for the susceptibility tests: S. aureus ATCC 25923; MRSA (a wild clinical strain from the JCU culture collection); E. coli ATCC 25922 and P. aeruginosa ATCC 27853. The bacteria were grown on Mueller Hinton agar (OXOID, cat. No. CM0337) and suspended in growth medium cation-adjusted Mueller Hinton broth (CAMHB, OXOID, cat. No. CM0405). The MIC of each complex was determined in duplicate by standard micro-dilution methodology (British Society for Antimicrobial Chemotherapy Working Party, J. Antimicrob. Chemother., 1991, 27(suppl. D), 22) using gentamicin as the positive control. The ruthenium complexes were dissolved in CAMHB to a stock solution of […] and two-fold diluted in the broth in 96-well plates in a final volume of […] in each well. The same volume […] of bacterial suspension was added in each well making a concentration range of 0.25 mg ml^−1 to 128 mg ml^−1 for each complex. The plates were incubated at 37° C. for 24 h. The results are summarised in Table 1 below, using the following abbreviations: • Rubpm=ΔΔ-[{Ru(phen)2}2(μ-2,2′-bipyrimidine)]Cl4 • Rudppm=ΔΔ-[{Ru(phen)2}2(μ-4,6-bis(2-pyridyl)pyrimidine)]Cl4 • Rubb7trinuclear=Δ*Δ*-[{Ru*(phen)2}(μ-bb7){Ru(phen)}(μ-bb7){Ru*(phen)2}]Cl6 (only the two terminal metal centres are chiral, the two central metal centres are racemic) • Rubb7tetranuclear=Δ*Δ*-[{Ru*(phen)2}(μ-bb7) {Ru(phen)}(μ-bb7){Ru(phen)}(μ-bb7)-{Ru*(phen)2}]Cl8 (only the two terminal metal centres are chiral, the two central metal centres are racemic)
as §1

E. coli ATCC 25922 = assay: MIC determination, broth micro-dilution (CAMHB); type: cell-based, Escherichia coli
Protocol: as §2, §1

P. aeruginosa = assay: Minimum Bactericidal Concentration (MBC) assay (CAMHB); type: cell-based, Pseudomonas aeruginosa; conditions: Table 4, all ΔΔ- enantiomers
Protocol: as §1

[1] = tested on: MRSA (a wild clinical strain from the JCU culture collection); assay: MIC determination, broth micro-dilution (CAMHB); type: cell-based, methicillin-resistant S. aureus
Protocol: as §2, §1

MRSA = assay: Minimum Bactericidal Concentration (MBC) assay (CAMHB); type: cell-based, methicillin-resistant S. aureus; conditions: Table 4, all ΔΔ- enantiomers
Protocol: as §1

P. aeruginosa ATCC 27853 = assay: MIC determination, broth micro-dilution (CAMHB); type: cell-based, Pseudomonas aeruginosa
Protocol: as §2, §1

E. faecalis = assay: Further MIC assays, whole spectrum bacteria (CAMHB); type: cell-based; design: unit not given beside the values; conditions: Table 3; Broth: CAMHB
Protocol: (§3) Further MIC assays were conducted against five different bacteria with Rubbn (n=7, 10, 12, 16), two rigid dinuclear species (bridges bpm and dppm) and Gentamicin—Whole spectrum bacteria MIC test results (Broth: CAMHB).

A. baumanii = assay: as above; type: cell-based; design: unit not given here; conditions: Table 3; Broth: CAMHB
Protocol: as §3

S. typhimurium = assay: as above; type: cell-based; conditions: Table 3; Broth: CAMHB
Protocol: as §3

S. epidermidis = assay: as above; type: cell-based; conditions: Table 3; Broth: CAMHB
Protocol: as §3

VRE = assay: as above; type: cell-based, vancomycin-resistant Enterococcus; conditions: Table 3; Broth: CAMHB
Protocol: as §3

[2] = type: physicochemical; conditions: pH 7.4
Protocol: The primary difference between the members of the Rubbn family of complexes is the number of methylene groups in the flexible linking chain. […] Lipophilicity is a significant factor affecting the biological activity of most therapeutic compounds, as it relates to the capacity of the drug to penetrate through the cell membrane. The standard octanol-water partition coefficient (logP) was determined for the Rubbn series (F. Lombardo, B. Faller, M. Shalaeva, I. Tetko and S. Tilton, Methods and Principles in Medicinal Chemistry, 2008, 37, 407) parent model mononuclear species ([Ru(phen)2(Me2bpy)]^2+) and the trinuclear and tetranuclear complexes.
The partition coefficients (logP) were measured using the shake flask technique: each ruthenium complex (at both 0.05 and 0.1 mM) was dissolved in the water phase (0.2 M Na2HPO4—NaH2PO4 buffer, pH=7.4) and an equivalent volume of n-octanol was added.
The two phases were mutually saturated by shaking overnight at ambient temperature and then were allowed to separate on standing. The concentration of the metal complex in each phase was determined spectrophotometrically at l=450 nm.

[3] = Table 4, CAMHB, all ΔΔ- enantiomers

Substance	MBC E. coli (E. coli) [µg/mL]	MBC S. aureus (S. aureus) [µg/mL]	MIC S. aureus (S. aureus ATCC 25923; [3])	MIC E. coli (E. coli ATCC 25922; [3])	MBC P. aeruginosa (P. aeruginosa) [µg/mL]	MIC MRSA [1, 3]	MBC MRSA (MRSA) [µg/mL]	MIC P. aeruginosa (P. aeruginosa ATCC 27853; [3])	MIC S. aureus (S. aureus ATCC 25923; Table 1, 37° C., 24 h)	MIC E. faecalis (E. faecalis)	MIC A. baumanii (A. baumanii)	MIC E. coli (E. coli ATCC 25922; Table 1, 37° C., 24 h) [µg/mL]	MIC S. typhimurium (S. typhimurium)	MIC S. epidermidis (S. epidermidis)	MIC MRSA ([1]; Table 1, 37° C., 24 h) [µg/mL]	MIC VRE (VRE)	MIC P. aeruginosa (P. aeruginosa ATCC 27853; Table 1, 37° C., 24 h) [µg/mL]	logP [2]
[{Ru(terpy)(Cl)}2(μ-bb14)](PF6)2 [Rubb14-Cl]	2	1	1	2	64	1	2	32										
[{Ru(terpy)Cl}2(μ-bb7)] [Rubb7-Cl]	8	8	8	8	64	8	16	32										
gentamicin [reference compound]									≦0.0625 μg.ml^−1	32	16	0.5	2	<0.125	16	16	0.125	
Δ-[Ru(phen)2(Me2bipy)](PF6)2 [[Ru(phen)2(Me2bpy)]^2+, reference compound]									128 µg/mL			>128			>128		>128	−2.9
Δ-[Ru(phen)2(bb16)]Cl2 [Rubb16mono]									16 µg/mL			64			16		64	+2.1
ΔΔ-[{Ru(phen)2}2(μ-2,2′-bipyrimidine)]Cl4 [Rubpm, reference compound]									>128 µg/mL	>128	>128	>128	>128	>128	>128	>128	>128	
